# Entries after “also recorded” stand apart in the source; their conditions may differ.
# Experiments:
# [1] = system: mouse primary chondrocytes; test: RT-qPCR gene expression in mouse primary chondrocytes treated with 3TC or FTC at various dosages; assay type: cell-based
# Method: Rib cages were sterilely isolated from neonatal mice (within 7-day-old) of desired genotypes and rinsed with HBSS for five times. To remove unspecific tissues, rib cages were digested in Collagenase D (3 μg/mL, Roche, Cat. 11088882001, Mannheim, Germany) for 2-4 hrs at 37° C. and rinsed with HBSS (Gibco®, Grand Island, N.Y. 14072 USA) for five times to remove detached unspecific tissues. To detach chondrocytes from rib cages, the samples underwent secondary digestion in Collagenase D (3 μg/mL) for at least 4 hrs at 37° C. with constant agitation (200 rpm). Detached chondrocytes were pelleted to remove excessive Collagenase D and resuspended in complete medium of DMEM (Gibco®, Grand Island, N.Y. 14072 USA) which contains 10% FBS, 100 U/mL penicillin and 100 μg/mL streptomycin (Gibco®, Grand Island, N.Y. 14072 USA). Growth plate PCs were grown at 37° C. in an atmosphere of 5% CO2. The media was changed on the following day to remove remaining Collagenase D and every 3 days thereafter. Similarly, articular cartilages were sterilely isolated under dissection microscope from neonatal mice (within 7-day-old) of desired genotypes and rinsed with HBSS for five times. In brief, the skins of hindlimbs were removed and transections on Ilia and muscles around hip joints were made to detach hindlimbs from torsi, then transferred to a petri dish. Under a dissection microscope placed in a cell culture hood, soft tissues were cleared while knee and hip joints were exposed. Femur heads could be easily peeled off whilst a fine cut of epiphyses based on vascularization were made to isolate articular cartilage from secondary ossification center. Beyond that, isolated tissues were minced into finer fragments and then put together before undergoing HBSS rinse and subsequent Collagenase D digestion. To remove unspecific tissues, articular cartilages were minced and digested in Collagenase D (3 μg/mL) for 2 hrs at 37° C. and rinsed with HBSS for five times to remove detached unspecific tissues. To detach chondrocytes from cartilage matrix, the samples underwent secondary digestion in Collagenase D (3 μg/mL) for at least 4 hrs at 37° C. with constant agitation (200 rpm). Detached chondrocytes were pelleted to remove excessive Collagenase D and resuspended in complete medium of DMEM which contains 10% FBS, 100 U/mL penicillin and 100 μg/mL streptomycin. Articular PCs were grown at 37° C. in an atmosphere of 5% CO2. The media was changed on the following day to remove remaining Collagenase D and every 3 days thereafter. Both miRNA and mRNA were extracted using miRNeasy Mini Kit (Qiagen®, Germantown, Md., USA) and reversely transcribed using […] (Qiagen®, Germantown, Md., USA) according to manufacturer's instruction. qPCR was performed using SYBR Green PCR master mix (Qiagen®, Germantown, Md., USA) on a Bio-Rad CFX96 real-time PCR detection system (Bio-Rad®, Hercules, Calif., USA). Amplification conditions are as follows: 95° C. for 10 min, 40 cycles of 95° C. for 10'', 55° C. for 30'', and 72° C. for 30''. 18S ribosomal or GAPDH RNA was used as an internal control gene to normalize the mRNAs level. The ubiquitously expressed snRNA U6 was used as an endogenous control for miRNAs level. […] The primers for miR-365 were purchased from Qiagen. Fold changes of mRNA and miRNAs were calculated by the 2^^(ΔΔCt) method and normalized to 18S/GAPDH or U6 snRNA, respectively.
# [2] = system: mouse femur articular cartilage; test: femur explant organ culture with 3TC or FTC, RT-qPCR of articular cartilage; assay type: cell-based; details: 10 μM 3TC or 25 μM FTC, 48 hrs
# Text: Femurs were obtained from 21-day-old WT C57BL/6 mice. Femurs with intact articular surface and periosteum was sterilely dissected under microscope. Upon harvesting, femurs were rinsed with HBSS (Gibco®, Grand Island, N.Y. 14072 USA) and then submerged into DMEM (Gibco, Grand Island, N.Y. 14072 USA) medium supplemented with 10% fetal bovine serum (FBS, Gibco®, Grand Island, N.Y. 14072 USA) in 12-well culture dishes. The first-generation cytidine analogue/NRTI-3TC or newest-generation cytidine analogue/NRTI-FTC was added into the medium with desired concentrations. After a total of 48 hrs incubation at 37° C. in an atmosphere of 5% CO2, femurs were rinsed with HBSS and articular cartilage was peeled off using surgical scalpels under dissecting microscope for RNA extraction. Both miRNA and mRNA were extracted using miRNeasy Mini Kit (Qiagen®, Germantown, Md., USA) and reversely transcribed using […] (Qiagen®, Germantown, Md., USA) according to manufacturer's instruction. qPCR was performed using SYBR Green PCR master mix (Qiagen®, Germantown, Md., USA) on a Bio-Rad CFX96 real-time PCR detection system (Bio-Rad®, Hercules, Calif., USA). Amplification conditions are as follows: 95° C. for 10 min, 40 cycles of 95° C. for 10'', 55° C. for 30'', and 72° C. for 30''. 18S ribosomal or GAPDH RNA was used as an internal control gene to normalize the mRNAs level. The ubiquitously expressed snRNA U6 was used as an endogenous control for miRNAs level. […] The primers for miR-365 were purchased from Qiagen. Fold changes of mRNA and miRNAs were calculated by the 2^^(ΔΔCt) method and normalized to 18S/GAPDH or U6 snRNA, respectively.
# [3] = system: HIV patients; test: summary data of NRTI on OA in HIV patients; assay type: in vivo, human; details: HIV patients, older than 50, dosage dependent, both male and female
# Text: Medical provider diagnoses of ICD-9-CM 715 [osteoarthrosis and allied disorders] include the following definitions: 1) strict=ICD-9-CM 715; 2) expanded=ICD-9-CM 715, 716 [other and unspecified arthropathies], OR 719 [other and unspecified disorders of joint]); and 3) probable=strict OR expanded+respondent-reported prior diagnosis of OA or other arthritis excluding rheumatoid arthritis (RA).
# [4] = mouse primary chondrocytes, RNA level, various dosages
# [5] = mouse chondrocytes, at lower than 100 μM concentrations
SMILES,"Acan expression [1, 4]","Adamts5 expression [1, 4]","Col2 (Col2a1) expression [1, 4]","Col10 (Col10a1) expression [1, 4]","Ifn-α (Inf-α) expression [1, 4]","Line-1 expression [1, 4]","Mmp13 expression [1, 4]",Acan expression [2],Adamts5 expression [2],Col2 (Col2a1) expression [2],Col10 (Col10a1) expression [2],Ifn-α mRNA level [2],Ihh mRNA level [2],Line-1 (L1) levels [2],Mmp3 mRNA level [2],Mmp13 expression [2],strict OA (ICD-9-CM 715) [3],also measured
"Nc1ccn([C@@H]2CS[C@H](CO)O2)c(=O)n1 [3TC, lamivudine]",stimulated,suppresses; also recorded: inhibited,promotes; also recorded: stimulated,suppresses; also recorded: inhibited,suppresses,suppresses; also recorded: inhibited,inhibited,induces; also recorded: increased,inhibiting; also recorded: significantly inhibited,induces; also recorded: increased,inhibiting; also recorded: significantly inhibited,significantly inhibited,significantly inhibited,inhibiting; also recorded: significantly inhibited,significantly inhibited,inhibiting; also recorded: significantly inhibited,inhibiting,–
"Nc1nc(=O)n([C@@H]2CS[C@H](CO)O2)cc1F [FTC, 2′,3′-dideoxy-5-fluoro-3′-thiacytidine]",promotes,induces,promotes,induces,suppresses; also recorded: significantly inhibited,suppresses; also recorded: significantly inhibited,induces,induces; also recorded: increased,inhibits; also recorded: significantly inhibited,increased,significantly inhibited,significantly inhibited,significantly inhibited,significantly inhibited,significantly inhibited,inhibits; also recorded: significantly inhibited,inhibiting,"Acan levels [1, 5]: increased; Col2a1 levels [1, 5]: increased; Mmp3 expression [1, 4]: induces; Nlrp3 expression [1, 4]: suppresses; also recorded: significantly inhibited; P2rx7 expression [1, 4]: suppresses; also recorded: significantly inhibited"

# From patent US12121530B2, “Composition and methods for treating articulating joint disorders with nucleoside reverse transcriptase inhibitors” (RHODE ISLAND HOSPITAL, priority 2018, dated 2024)
